The source of these data is patent publication US11046686B2, “Thiadiazole IRAK4 compounds” (Gilead Sciences, Inc., priority 2018, dated 2021).

Like-named read-outs stand apart in the source and are kept apart here.

Experiment [1] addresses IRAK4 enzyme (Homo sapiens (Human), UniProt Q9NWZ3). Nature of the experiment: IRAK4 Biochemical Assay (TR-FRET, STK1 KinEASE). Summed up:
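IRAK4 (0.75 nM) preincubated 15 min with compound and […] STK1 peptide, then started with 500 μM ATP in HEPES pH 7.0 buffer with MgCl2, DTT, BSA, NP-40; 120 min at room temperature.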
In general terms: Time-resolved FRET reads energy transfer from a long-lived donor to a nearby acceptor.

Experiment [2] relates to TNFα. Kind of experiment: IRAK4 Monocyte TNFα Cell Based Assay. The arrangement: species or system human. Particulars: Homo sapiens, Monocyte, read-out: EC50 MONO TNF HTRF. The procedure, abridged:
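Human monocytes (5,000/well) pretreated with compound 1 h at 37 °C (0.1% DMSO final), then stimulated with 50 pg/ml LPS for 4 h. Secreted TNFα measured by TR-FRET two-antibody detection after overnight incubation at room temperature; % control relative to unstimulated and LPS-stimulated wells.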

Where [3] appears, read: human monocytes, second part of Table 2, compounds 33-343, unit inferred.

IRAK4 enzyme, sequence (Q9NWZ3 whole entry): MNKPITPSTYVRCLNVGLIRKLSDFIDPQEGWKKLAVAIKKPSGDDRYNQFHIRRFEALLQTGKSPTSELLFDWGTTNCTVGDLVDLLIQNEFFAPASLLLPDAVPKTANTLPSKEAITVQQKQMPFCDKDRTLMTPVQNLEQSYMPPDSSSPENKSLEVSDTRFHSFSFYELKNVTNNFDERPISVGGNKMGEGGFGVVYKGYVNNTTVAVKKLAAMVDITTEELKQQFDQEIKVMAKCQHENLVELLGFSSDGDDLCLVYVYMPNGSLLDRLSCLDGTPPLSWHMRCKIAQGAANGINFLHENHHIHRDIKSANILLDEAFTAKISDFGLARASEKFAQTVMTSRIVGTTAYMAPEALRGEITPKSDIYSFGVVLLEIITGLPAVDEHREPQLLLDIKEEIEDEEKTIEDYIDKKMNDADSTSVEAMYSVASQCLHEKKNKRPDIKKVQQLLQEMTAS

With `CC(=O)N[C@@H]1CCN(c2nnc(-c3cnc(-c4ccc5cc(C#N)cnn45)cc3N[C@H](C)C#N)s2)CC1(F)F` [Example 151, N-((R)-1-(5-(4-(((R)-1-cyanoethyl)amino)-6-(3-cyanopyrrolo[1,2-b]pyridazin-7-yl)pyridin-3-yl)-1,3,4-thiadiazol-2-yl)-3,3-difluoropiperidin-4-yl)acetamide], in experiment [1], it took 1.03 nM to reach half-maximal inhibition (IC50). The concentration for a half-maximal effect (EC50) in experiment [2] (setting [3]) came to 5 nM.

As for `CC(=O)N[C@H]1CCN(c2nnc(-c3cnc(-c4ccc5cc(C#N)cnn45)cc3N[C@H](C)C#N)s2)CC1(F)F` [Example 152, N-((S)-1-(5-(4-(((R)-1-cyanoethyl)amino)-6-(3-cyanopyrrolo[1,2-b]pyridazin-7-yl)pyridin-3-yl)-1,3,4-thiadiazol-2-yl)-3,3-difluoropiperidin-4-yl)acetamide], it took 0.58 nM to reach half-maximal inhibition in experiment [1] (IC50). For the same molecule, the EC50 in experiment [2] (setting [3]) stood at 10.7 nM.

`CC(C)Nc1cc(-c2ccc3cc(C#N)cnn23)ncc1-c1nnc(N2CC[C@H](O)C(F)(F)C2)s1` [Example 161, (S)-7-(5-(5-(3,3-difluoro-4-hydroxypiperidin-1-yl)-1,3,4-thiadiazol-2-yl)-4-(isopropylamino)pyridin-2-yl)pyrrolo[1,2-b]pyridazine-3-carbonitrile] gave a concentration for half-maximal inhibition (IC50) in experiment [1] of 1.48 nM. Further, the EC50 in experiment [2] (setting [3]) was determined as 34.7 nM.

`CC(C)Nc1cc(-c2ccc3cc(C#N)cnn23)ncc1-c1nnc(N2CC[C@@H](O)C(F)(F)C2)s1` [Example 162, (R)-7-(5-(5-(3,3-difluoro-4-hydroxypiperidin-1-yl)-1,3,4-thiadiazol-2-yl)-4-(isopropylamino)pyridin-2-yl)pyrrolo[1,2-b]pyridazine-3-carbonitrile] gave a half-inhibitory concentration (IC50) in experiment [1] of 2.29 nM. Besides, in experiment [2] (setting [3]), the half-maximal effective concentration (EC50) worked out at 26.5 nM.

As to `CC(C)Nc1cc(-c2ccc3cc(C#N)cnn23)ncc1-c1nnc(N2CC3(CNC(=O)C3)C2)s1` [Example 163, 7-(4-(isopropylamino)-5-(5-(7-oxo-2,6-diazaspiro[3.4]octan-2-yl)-1,3,4-thiadiazol-2-yl)pyridin-2-yl)pyrrolo[1,2-b]pyridazine-3-carbonitrile], in experiment [1], the IC50 came to 0.54 nM. In experiment [2] (setting [3]), the EC50 was found to be 15 nM.

On to `CC(C)Nc1cc(-c2ccc3cc(C#N)cnn23)ncc1-c1nnc(N2CCOC(F)(F)C2)s1` [Example 167, 7-(5-(5-(2,2-difluoromorpholino)-1,3,4-thiadiazol-2-yl)-4-(isopropylamino)pyridin-2-yl)pyrrolo[1,2-b]pyridazine-3-carbonitrile], for which the IC50 in experiment [1] stood at 1.81 nM. For the same molecule, in experiment [2] (setting [3]), the half-maximal effective concentration (EC50) stood at 1000 nM.

In the case of `CC(=O)N[C@@H]1CCN(c2nnc(-c3cnc(-c4ccc5cc(C#N)cnn45)cc3NC(C)C)s2)CC1(F)F` [Example 168, (R)-N-(1-(5-(6-(3-cyanopyrrolo[1,2-b]pyridazin-7-yl)-4-(isopropylamino)pyridin-3-yl)-1,3,4-thiadiazol-2-yl)-3,3-difluoropiperidin-4-yl)acetamide], in experiment [1], half-maximal inhibition (IC50) was put at 0.65 nM. For the same molecule, the EC50 in experiment [2] (setting [3]) came out at 8.4 nM.

`CC(=O)N[C@H]1CCN(c2nnc(-c3cnc(-c4ccc5cc(C#N)cnn45)cc3NC(C)C)s2)CC1(F)F` [Example 169, (S)-N-(1-(5-(6-(3-cyanopyrrolo[1,2-b]pyridazin-7-yl)-4-(isopropylamino)pyridin-3-yl)-1,3,4-thiadiazol-2-yl)-3,3-difluoropiperidin-4-yl)acetamide] yielded a half-maximal inhibitory concentration (IC50) in experiment [1] of 0.93 nM. The half-maximal effective concentration (EC50) in experiment [2] (setting [3]) came out at 220 nM.

With `CC(=O)NC1CCC2(C1)CN(c1nnc(-c3cnc(-c4ccc5cc(C#N)cnn45)cc3NC(C)C)s1)C2` (centres unmarked) [Example 170, N-(2-(5-(6-(3-cyanopyrrolo[1,2-b]pyridazin-7-yl)-4-(isopropylamino)pyridin-3-yl)-1,3,4-thiadiazol-2-yl)-2-azaspiro[3.4]octan-6-yl)acetamide], in experiment [1], the 50% inhibitory concentration (IC50) is 0.36 nM. Besides, the EC50 in experiment [2] (setting [3]) is 16 nM.

`N#Cc1cnn2c(-c3cc(NC4CCOCC4)c(-c4nnc(N5CC6CC(C5)O6)s4)cn3)ccc2c1` [Example 177, 7-(5-(5-(6-oxa-3-azabicyclo[3.1.1]heptan-3-yl)-1,3,4-thiadiazol-2-yl)-4-((tetrahydro-2H-pyran-4-yl)amino)pyridin-2-yl)pyrrolo[1,2-b]pyridazine-3-carbonitrile]: the IC50 in experiment [1] was 0.41 nM. In addition, in experiment [2], the 50% effective concentration (EC50) came out at 8.3 nM.

The molecule `C[C@H](C#N)Nc1cc(-c2ccc3cc(C#N)cnn23)ncc1-c1nnc(N2CC3CC(C2)O3)s1` [Example 178, 7-(5-(5-(6-oxa-3-azabicyclo[3.1.1]heptan-3-yl)-1,3,4-thiadiazol-2-yl)-4-(((R)-1-cyanoethyl)amino)pyridin-2-yl)pyrrolo[1,2-b]pyridazine-3-carbonitrile] displayed a half-maximal inhibitory concentration (IC50) in experiment [1] of 0.45 nM. Also, in experiment [2], the EC50 was 4.9 nM.

With `CC(=O)N[C@@H]1CCN(c2nnc(-c3cnc(-c4ccc5cc(C#N)cnn45)cc3NC3COC3)s2)CC1(F)F` [Example 183, (R)-N-(1-(5-(6-(3-cyanopyrrolo[1,2-b]pyridazin-7-yl)-4-(oxetan-3-ylamino)pyridin-3-yl)-1,3,4-thiadiazol-2-yl)-3,3-difluoropiperidin-4-yl)acetamide], in experiment [1], 0.5 nM corresponded to half-maximal inhibition (IC50). In addition, the EC50 in experiment [2] (setting [3]) was 8.8 nM.

The molecule `CC1(O)CCN(c2nnc(-c3cnc(-c4ccc5cc(C#N)cnn45)cc3NC3COC3)s2)CC1` [Example 187, 7-(5-(5-(4-hydroxy-4-methylpiperidin-1-yl)-1,3,4-thiadiazol-2-yl)-4-(oxetan-3-ylamino)pyridin-2-yl)pyrrolo[1,2-b]pyridazine-3-carbonitrile] displayed an IC50 in experiment [1] of 0.66 nM. In addition, the 50% effective concentration (EC50) in experiment [2] (setting [3]) was determined as 10.8 nM.

In the case of `CC1(O)CCN(c2nnc(-c3cnc(-c4ccc5cc(C#N)cnn45)cc3NC3CCOCC3)s2)CC1` [Example 188, 7-(5-(5-(4-hydroxy-4-methylpiperidin-1-yl)-1,3,4-thiadiazol-2-yl)-4-((tetrahydro-2H-pyran-4-yl)amino)pyridin-2-yl)pyrrolo[1,2-b]pyridazine-3-carbonitrile], half-maximal inhibition in experiment [1] (IC50) was put at 1.07 nM. Besides, the EC50 in experiment [2] (setting [3]) was 7.6 nM.

In experiment [1], `CC(C)Nc1cc(-c2ccc3cc(C#N)cnn23)ncc1-c1nnc(N2CC[C@](C)(O)[C@@H](F)C2)s1` [Example 190, 7-(5-(5-((3S,4S)-3-fluoro-4-hydroxy-4-methylpiperidin-1-yl)-1,3,4-thiadiazol-2-yl)-4-(isopropylamino)pyridin-2-yl)pyrrolo[1,2-b]pyridazine-3-carbonitrile] registered an IC50 of 1.39 nM. Also, the concentration giving a half-maximal response (EC50) in experiment [2] (setting [3]) came out at 11.7 nM.

`CC(C)Nc1cc(-c2ccc3cc(C#N)cnn23)ncc1-c1nnc(N2CC[C@@](C)(O)[C@H](F)C2)s1` [Example 191, 7-(5-(5-((3R,4R)-3-fluoro-4-hydroxy-4-methylpiperidin-1-yl)-1,3,4-thiadiazol-2-yl)-4-(isopropylamino)pyridin-2-yl)pyrrolo[1,2-b]pyridazine-3-carbonitrile] showed an IC50 in experiment [1] of 1.15 nM. Moreover, the EC50 in experiment [2] (setting [3]) stood at 22.9 nM.

Consider `CC(C)Nc1cc(-c2ccc3cc(C#N)cnn23)ncc1-c1nnc(N2CC[C@](C)(O)[C@H](F)C2)s1` [Example 192, 7-(5-(5-((3R,4S)-3-fluoro-4-hydroxy-4-methylpiperidin-1-yl)-1,3,4-thiadiazol-2-yl)-4-(isopropylamino)pyridin-2-yl)pyrrolo[1,2-b]pyridazine-3-carbonitrile], for which the IC50 in experiment [1] was 1.21 nM. Further, the EC50 in experiment [2] (setting [3]) worked out at 24.6 nM.

In the case of `CC(=O)NC1[C@@H]2COC[C@H]1CN(c1nnc(-c3cnc(-c4ccc5cc(C#N)cnn45)cc3NC(C)C)s1)C2` (stereo partly drawn) [Example 193, N-((1R,5S)-7-(5-(6-(3-cyanopyrrolo[1,2-b]pyridazin-7-yl)-4-(isopropylamino)pyridin-3-yl)-1,3,4-thiadiazol-2-yl)-3-oxa-7-azabicyclo[3.3.1]nonan-9-yl)acetamide], the midpoint of inhibition in experiment [1], the IC50, lay at 0.68 nM. Moreover, in experiment [2] (setting [3]), the concentration giving a half-maximal response (EC50) was determined as 4.1 nM.

Regarding `CC(=O)NC1CCC(F)(c2nnc(-c3cnc(-c4ccc5cc(C#N)cnn45)cc3NC(C)C)s2)CC1` (centres unmarked) [Example 194, N-(4-(5-(6-(3-cyanopyrrolo[1,2-b]pyridazin-7-yl)-4-(isopropylamino)pyridin-3-yl)-1,3,4-thiadiazol-2-yl)-4-fluorocyclohexyl)acetamide], inhibition in experiment [1] was half-maximal at 0.75 nM (IC50). Also, the EC50 in experiment [2] (setting [3]) is 64 nM.

In experiment [1], `CC(=O)NC12C3C4C1C1C2C3C41c1nnc(-c2cnc(-c3ccc4cc(C#N)cnn34)cc2NC(C)C)s1` (centres unmarked) [Example 197, N-(4-(5-(6-(3-cyanopyrrolo[1,2-b]pyridazin-7-yl)-4-(isopropylamino)pyridin-3-yl)-1,3,4-thiadiazol-2-yl)cuban-1-yl)acetamide] registered a 50% inhibitory concentration (IC50) of 1.57 nM. The EC50 in experiment [2] (setting [3]) came out at 32.9 nM.

The molecule `C[C@]1(O)CCN(c2nnc(-c3cnc(-c4ccc5cc(C#N)cnn45)cc3NC3CCOCC3)s2)C[C@@H]1F` [Example 204, 7-(5-(5-((3S,4S)-3-fluoro-4-hydroxy-4-methylpiperidin-1-yl)-1,3,4-thiadiazol-2-yl)-4-((tetrahydro-2H-pyran-4-yl)amino)pyridin-2-yl)pyrrolo[1,2-b]pyridazine-3-carbonitrile] came in with an IC50 in experiment [1] of 0.35 nM. Further, the 50% effective concentration (EC50) in experiment [2] (setting [3]) came to 3.5 nM.

`C[C@]1(O)CCN(c2nnc(-c3cnc(-c4ccc5cc(C#N)cnn45)cc3NC3COC3)s2)C[C@@H]1F` [Example 207, 7-(5-(5-((3S,4S)-3-fluoro-4-hydroxy-4-methylpiperidin-1-yl)-1,3,4-thiadiazol-2-yl)-4-(oxetan-3-ylamino)pyridin-2-yl)pyrrolo[1,2-b]pyridazine-3-carbonitrile]: in experiment [1], the IC50 stood at 0.69 nM. Moreover, in experiment [2] (setting [3]), the concentration for a half-maximal effect (EC50) turned out to be 7.9 nM.

For orientation: IC50 means the point on the concentration scale where inhibition reaches its midpoint. Usually EC50 stands for the concentration that produces a half-maximal response.
